We go through 4 molecules from patent publication US20250057740A1, “Stable Stannous Oral Care Product” (Colgate-Palmolive Company, priority 2018, published 2025).

Data set [1] in a line: Stability of stannous ions over 35 days at 60° C. (FIG. 3).
Experimental: Stability of stannous ions is assessed over a period of 35 days.
The conditions of data set [2]: in water; cited from earlier work.
The conditions of data set [3]: aqueous Sn (II) with the named additive, 35 days. The procedure:
Stability of Sn (II) in aqueous solutions, and the ability of various additives to affect this stability, is assessed.

Turning to `[F][Sn][F]` [stannous fluoride, reference compound], in data set [1] (stannous fluoride alone), the stannous oxidized was around 80%.
Take `O.O.O.O.O=P([O-])([O-])[O-].O=P([O-])([O-])[O-].[Zn+2].[Zn+2].[Zn+2]` [Zinc phosphate, zinc phosphate]: the Ksp in data set [2] is ~10^−35. For the same molecule, the “prevention of the stannous-to-stannic oxidation” value in data set [3] is recorded as “positive impact”.
With `O=P([O-])([O-])OP(=O)([O-])[O-].[Na+].[Na+].[Na+].[Na+]` [TSPP, tetrasodium pyrophosphate], the “oxidative stability of stannous” value in data set [1] (SnF2 in the presence of the named additive) is on record as “no oxidative stability is observed”.
In the case of `O=P(O)(O)O` [phosphoric acid], in data set [1] (stannous fluoride in the presence of the named additive), the stannous oxidized is recorded as 8-9%.
